{"source": "patent US7501409B2", "about": "“Preparations for oral administration” (Mitsubishi Tanabe Pharma Corporation, priority 2000, dated 2009)", "origin": "cited, not measured here", "note": "Where a name gives a salt, the structure may show the parent alone. Read-outs that look alike come from different tables or passages of the source.", "data": [{"smiles": "CCCc1nn(C)c2c(=O)[nH]c(-c3cc(S(=O)(=O)N4CCN(C)CC4)ccc3OCC)nc12", "note": "[sildenafil citrate]", "values": [{"measurement": "solubility", "setting": "pH 1.2", "result": 2.52, "unit": "mg/mL"}, {"measurement": "solubility", "setting": "pH 6.8", "result": 0.11, "unit": "mg/mL"}]}]}
